Among the data in paper PMC11995866, “Roles of basic amino acid residues in substrate binding and transport of the light-driven anion pump Synechocystis halorhodopsin (SyHR)” (The Journal of Biological Chemistry, 2025) are Kd values, retold here.

Assay [1] concerns the target T1, Synechocystis halorhodopsin (SyHR) (Synechocystis sp. PCC 7509, UniProt A0A9X9ZA75, H167A).
T1 construct: codon-optimised, C-terminal His6 tag, pET21a, E. coli BL21(DE3) with all-trans retinal; HisTrap-purified in DDM
T1 sequence (A0A9X9ZA75 1-234 H167A): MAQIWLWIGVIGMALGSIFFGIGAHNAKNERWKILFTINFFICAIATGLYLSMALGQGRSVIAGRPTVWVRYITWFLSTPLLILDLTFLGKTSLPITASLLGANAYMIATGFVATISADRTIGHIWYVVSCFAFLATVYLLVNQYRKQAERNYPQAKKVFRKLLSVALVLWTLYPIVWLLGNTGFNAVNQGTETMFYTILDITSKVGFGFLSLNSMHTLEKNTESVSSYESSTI
In words: absorption spectral shift titration (UV-visible), single-site Hill fit. It counts as binding.

Assay [2] concerns the target T2, Synechocystis halorhodopsin (SyHR) (Synechocystis sp. PCC 7509, UniProt A0A9X9ZA75, R71K).
T2 construct: codon-optimised, C-terminal His6 tag, pET21a, E. coli BL21(DE3) with all-trans retinal; HisTrap-purified in DDM
T2 sequence (A0A9X9ZA75 1-234 R71K): T1 sequence (A0A9X9ZA75 1-234 H167A) with R71K, A167H
Described as above. Format: binding.

In assay [3] the target is T3, Synechocystis halorhodopsin (SyHR) (Synechocystis sp. PCC 7509, UniProt A0A9X9ZA75).
T3 construct: codon-optimised, C-terminal His6 tag, pET21a, E. coli BL21(DE3) with all-trans retinal; HisTrap-purified in DDM
T3 sequence (A0A9X9ZA75 1-234): T1 sequence (A0A9X9ZA75 1-234 H167A) with A167H
The assay is described as above. Format: binding.

The target in assay [4] is T4, Synechocystis halorhodopsin (SyHR) (Synechocystis sp. PCC 7509, UniProt A0A9X9ZA75, R71A).
T4 sequence (A0A9X9ZA75 1-234 R71A): T1 sequence (A0A9X9ZA75 1-234 H167A) with R71A, A167H
Kind of assay: biochemical.

The target of assay [5] is T5, Synechocystis halorhodopsin (SyHR) (Synechocystis sp. PCC 7509, UniProt A0A9X9ZA75, R71Y).
T5 sequence (A0A9X9ZA75 1-234 R71Y): T1 sequence (A0A9X9ZA75 1-234 H167A) with R71Y, A167H
In words: biochemical.

Where a chain is given by its changes, count along the chain named. pKd: −log10 of the molar value.

For orientation: pKd means the Kd on a negative log10 scale, so that one unit is a factor of ten. As to `Cl` [Cl^−], the pKd in assay [1] is 3.44; in assay [2], 3.26; in assay [3], 3.23; in assay [4] it was 2.35; in assay [5] it was 2.85.

On to `O=S(=O)(O)O` [SO4^2−], for which the pKd in assay [1] was 2.19; in assay [2], 2.42; in assay [3] it was 2.44.
